Activity calls are given as the source filed them. The rule behind the calls is not given here.
Key:
Mus musculus = experiment: In vivo inhibition of HDAC6 in C57BL/6 mouse assessed as increase in acetylated tubulin level in spleen cytosolic protein extract at 30 mg/kg, ip measured after 24 hrs by ELISA; type: functional, organism-based
[1] = Selectivity ratio of IC50 for C-terminal GST-tagged human HDAC5 to IC50 for human N-terminal GST-tagged HDAC6 expressed in baculovirus infected sf9 insect cells
[2] = Selectivity ratio of IC50 for N-terminal GST-tagged human HDAC7 (518 to end residues) expressed in baculovirus infected sf9 insect cells to IC50 for human N-terminal GST-tagged HDAC6 expressed in baculovirus infected sf9 insect cells
Histone deacetylase = experiment: Inhibition of HDAC in human 697 cells assessed as increase in H3 acetylation at 1000 nM incubated for 16 hrs by ELISA; type: cell-based; conditions: human, 697, 16 h, 1 µM
[3] = Toxicity in C57BL/6 mouse assessed as induction of diarrhea up to 50 mg/kg, ip administered for 5 days/week for two cycles and measured daily starting from day 1; type: organism-based; conditions: in vivo, 120 h
[4] = Inhibition of C57BL/6 mouse effector T cells proliferation at 1 uM after 72 hrs in absence of regulatory T cells by CFSE dye based flow cytometric assay relative to control
[5] = Stability in human plasma assessed as parent compound remaining at 100 uM after 4 hrs by LC-MS/MS analysis; type: ADME, cell-free; conditions: read-out: Stability
[6] = Cmax in CD-1 mouse at 5.2 mg/kg, po measured within 6 hrs by LC-MS/MS analysis; type: ADME, organism-based; set-up: dose 5.2 mg/kg, route oral; conditions: in vivo

Cn1c(Sc2ccc(C(=O)NO)cc2)nnc1-c1cccs1
inhibition (Mus musculus): Active
Ratio IC50 [1]: 326
Ratio IC50 [2]: 99
inhibition (INH) (Histone deacetylase): Active
Activity [3]: Non-Toxic
inhibition at 72 h, 1 µM [4]: < 5%
remaining at 4 h, 100 µM [5]: 100%
Cmax [6]: 0.144 µg/mL

Reference: ChEMBL document CHEMBL4414648, “Novel Benzohydroxamate-Based Potent and Selective Histone Deacetylase 6 (HDAC6) Inhibitors Bearing a Pentaheterocyclic Scaffold: Design, Synthesis, and Biological Evaluation” (J Med Chem, 2019)
